Assay results from ChEMBL document CHEMBL1781945, “A new series of 3-phenylcoumarins as potent and selective MAO-B inhibitors” (Bioorg Med Chem Lett, 2009).

Columns and labels:
[1] = target: T1, Amine oxidase [flavin-containing] B (Homo sapiens, UniProt P27338); experiment: Inhibition of human recombinant MAOB expressed in BTI insect cells using p-tyramine substrate by fluorometric method
T1 sequence (P27338 whole entry): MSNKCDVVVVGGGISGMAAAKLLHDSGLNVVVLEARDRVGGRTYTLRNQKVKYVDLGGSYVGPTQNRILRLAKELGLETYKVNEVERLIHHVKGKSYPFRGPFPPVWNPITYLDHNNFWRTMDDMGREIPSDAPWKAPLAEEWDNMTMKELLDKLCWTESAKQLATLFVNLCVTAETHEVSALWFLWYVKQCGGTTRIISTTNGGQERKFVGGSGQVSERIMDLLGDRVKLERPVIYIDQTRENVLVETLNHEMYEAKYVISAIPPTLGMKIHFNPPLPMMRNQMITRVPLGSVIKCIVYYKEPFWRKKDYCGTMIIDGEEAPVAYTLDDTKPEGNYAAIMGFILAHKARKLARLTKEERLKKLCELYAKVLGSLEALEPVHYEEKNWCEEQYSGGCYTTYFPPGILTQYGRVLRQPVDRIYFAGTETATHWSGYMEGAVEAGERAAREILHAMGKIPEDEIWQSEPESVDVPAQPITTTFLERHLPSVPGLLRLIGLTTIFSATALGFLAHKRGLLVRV

[2] = organism: Homo sapiens; experiment: Selectivity index, ratio of IC50 for human recombinant MAOA to IC50 for human recombinant MAOB
[3] = target: T2, Amine oxidase [flavin-containing] A (Homo sapiens, UniProt P21397); experiment: Inhibition of human recombinant MAOA expressed in BTI insect cells at 100 uM using p-tyramine substrate by fluorometric method
T2 sequence (P21397 whole entry): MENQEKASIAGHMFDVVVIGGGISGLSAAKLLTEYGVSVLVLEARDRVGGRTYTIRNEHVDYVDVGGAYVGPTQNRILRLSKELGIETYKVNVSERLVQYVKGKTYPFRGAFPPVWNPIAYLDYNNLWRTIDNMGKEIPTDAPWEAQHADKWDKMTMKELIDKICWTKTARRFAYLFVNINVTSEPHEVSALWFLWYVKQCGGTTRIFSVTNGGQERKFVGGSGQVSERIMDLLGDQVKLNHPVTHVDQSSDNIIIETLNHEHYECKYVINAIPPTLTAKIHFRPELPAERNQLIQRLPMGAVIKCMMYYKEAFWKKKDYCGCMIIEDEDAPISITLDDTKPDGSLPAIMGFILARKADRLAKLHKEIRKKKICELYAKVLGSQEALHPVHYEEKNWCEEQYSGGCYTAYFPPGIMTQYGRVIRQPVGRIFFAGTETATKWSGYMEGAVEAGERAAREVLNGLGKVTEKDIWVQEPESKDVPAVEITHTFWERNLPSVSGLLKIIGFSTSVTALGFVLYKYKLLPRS

| IC50 [1] | Ratio IC50 [2] | inhibition (INH) [3] | SMILES |
| --- | --- | --- | --- |
| 161 nM | > 623 | Not Active | COc1cc(-c2cc3cc(C)ccc3oc2=O)cc(OC)c1OC |
| 8.98 nM | > 11100 | Not Active | COc1cc(OC)cc(-c2cc3cc(C)ccc3oc2=O)c1 |
| 13.1 nM | > 7660 | Not Active | COc1ccc(-c2cc3cc(C)ccc3oc2=O)cc1 |
| 284 nM | > 352 | Not Active | Cc1ccc2oc(=O)c(-c3ccccc3)cc2c1 |
